Experiment [1] has as its target MuOPR 38–51 peptide (mu opioid receptor) (Homo sapiens, UniProt P35372). Put plainly: biochemical.
In experiment [2] the target is MuOPR 111–122 peptide (mu opioid receptor) (Homo sapiens, UniProt P35372). Put plainly: biochemical.
Experiment [3] has as its target MuOPR 121–131 peptide (mu opioid receptor) (Homo sapiens, UniProt P35372). Put plainly: biochemical.
Experiment [4] deals with MuOPR 132–143 peptide (mu opioid receptor) (Homo sapiens, UniProt P35372). Put plainly: biochemical.
The target of experiment [5] is MuOPR 211–226 peptide (mu opioid receptor) (Homo sapiens, UniProt P35372). Put plainly: biochemical.
The target of experiment [6] is muOPR peptides (Homo sapiens, UniProt P35372). Type of experiment: binding.
Sequence of muOPR peptides (P35372 with tags, fused parts or gaps): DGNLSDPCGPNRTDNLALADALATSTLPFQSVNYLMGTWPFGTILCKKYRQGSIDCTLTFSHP
Procedure: (§1) Each of these receptor peptides were made into individual stock solutions with a concentration of 1 mg/mL in pH 7.40 phosphate buffered saline solution (Fischer Scientific, Hampton, NH, USA). For each individual test, the stock solution was diluted to 0.1 or 0.2 mg/mL solution. […] The adrenergic or compounds were made up at 1.0 mM solutions and then serially diluted by thirds eleven times using phosphate buffer.
(§2) After the solutions were made, a 96-well quartz crystal plate was prepared to be run through the spectrophotometer at room temperature (approximately 24 °C). […] The absorbance of each receptor peptide without the presence of the adrenergic compound was measured as well. The absorbance of each well was measured at every 10-nm increment from 190–260 nm. The maximum absorbance that can be measured was set to be 4. Each well had 200 μL of solution, so if the absorbance of one component was being measured, it was diluted by half with phosphate buffer.
(§3) If the measured absorbance is different than the additive absorbance of each compound, then that indicates some sort of molecular interaction. The binding can be quantified by graphing the difference in absorbance against the concentration of the compound varied to provide a binding curve. The absorbance for the phosphate buffer is subtracted for each well before any calculations are done. The data are analyzed by finding the additive absorbance, and plotting the difference between this absorbance and the actual absorbance against the concentration of the adrenergic compound. […] The binding constants were estimated from the half-saturation point at 200 nm since the absorbance differences tended to be maximized at this wavelength.
Experiment [7] addresses intact, purified human mu opioid receptor (muOPR) (Homo sapiens, UniProt P35372). Put plainly: biochemical. The note with it: for binding to intact muOPR (in words): UV spectra, serial additions in Tris buffer. The procedure: MuOPR expression was achieved using the muOPR transformed C43 (DE3) cell strain of E. coli in Terrific Broth medium as reported earlier with 0.4 mM isopropyl β-D-1-thiogalactopyranoside induction at 18 °C for 24 h. Bacterial cell cultures were harvested by centrifugation at 4000× g for 20 min. Periplasmic fraction from the harvested cells was removed by osmatic shock. Cells were resuspended in 7 mL of lysis buffer (20 mM Tris-HCl pH 8.0, 150 mM NaCl, 10% glycerol, 2 mM MgCl2, 10 μM E-64, 1 μM pepstatin-A, 10 μM leupeptin, 1 mM pefabloc SC, 2 mM β-Mercaptoethanol, 1 mg/mL lysozyme, 30 U/mL DNase) per gram of cell pellet and incubated on ice for 30 min with continuous stirring. […] The solubilized membrane sample was centrifuged at 100,000× g for 1 h at 4 °C and the supernatant was collected. Imidazole was added to the supernatant to a final concentration of 5 mM before starting purification using Ni-NTA resin in batch mode as reported. Eluted fractions with muOPR were pooled, concentrated and subjected to size exclusion chromatography (SEC) using HiLoad 16/600 Superdex 200 pg column (GE Healthcare Sciences, Berlin, Germany) equilibrated with 20 mM Tris pH 8, 150 mM NaCl, 0.1% Fos12, 10% Glycerol and 1 mM TCEP. SEC elution fractions were analyzed by SDS-PAGE and western blotting with Monoclonal Anti-polyHistidine-Peroxidase antibody (Sigma-Aldrich) for protein presence and purity before use.
The spectrum of the wells was then recorded from 190 to 260 nm using a Spectramax plus scanning spectrophotometer (Molecular Devices, San Jose, CA, USA) using SOFTMax PRO software (Molecular Devices, San Jose, CA, USA). The procedure described above was repeated an additional eleven times using compound dilutions of increasing concentration each time.
Data were analyzed in Excel. The raw spectra were processed by averaging the three runs of each condition and then subtracting the absorbance of the buffer alone at each volume. The triplicate data for each experimental condition were averaged. The compound + buffer data were subtracted from the muOPR + compound data at each volume to leave the spectrum of the muOPR under that experimental condition. […] Because the final calculations involve several subtractions, error bars […].

Experiment [8] concerns the target INSR 105–113 peptide (insulin receptor) (Homo sapiens, UniProt P06213). Put plainly: biochemical.
Procedure: as §1, §2, §3
For experiment [9], the target named is INSR 157–166 peptide (insulin receptor) (Homo sapiens, UniProt P06213). Put plainly: biochemical.
Procedure: as §1, §2
(§4) If the measured absorbance is different than the additive absorbance of each compound, then that indicates some sort of molecular interaction. The binding can be quantified by graphing the difference in absorbance against the concentration of the compound varied to provide a binding curve. The absorbance for the phosphate buffer is subtracted for each well before any calculations are done. […]
The target in experiment [10] is B2AR 93–100 peptide (β-2-adrenergic receptor) (Homo sapiens, UniProt P07550). Put plainly: biochemical.
Procedure: as §1, §2, §3
Experiment [11] addresses B2AR 97–106 peptide (β-2-adrenergic receptor) (Homo sapiens, UniProt P07550). Put plainly: biochemical.
Procedure: as §1, §2, §3
In experiment [12] the target is B2AR 103–113 peptide (β-2-adrenergic receptor) (Homo sapiens, UniProt P07550). Put plainly: biochemical.
Procedure: as §1, §2, §4
Experiment [13] concerns the target B2AR 175–188 peptide (β-2-adrenergic receptor) (Homo sapiens, UniProt P07550). Put plainly: biochemical.
Procedure: as §1, §2, §3
Experiment [14] concerns the target D1DR 89–100 peptide (dopamine receptor D1) (Homo sapiens, UniProt P21728). Put plainly: biochemical.
Experiment [15] addresses D1DR 175–188 peptide (dopamine receptor D1) (Homo sapiens, UniProt P21728). Put plainly: biochemical.
Experiment [16] concerns the target HIST 77–87 peptide (histamine 1 receptor) (Homo sapiens, UniProt P35367). Put plainly: biochemical.
In experiment [17] the target is HIST 89–98 peptide (histamine 1 receptor) (Homo sapiens, UniProt P35367). Put plainly: biochemical.
Experiment [18] deals with HIST 96–107 peptide (histamine 1 receptor) (Homo sapiens, UniProt P35367). Put plainly: biochemical.
Experiment [19] has as its target HIST 105–115 peptide (histamine 1 receptor) (Homo sapiens, UniProt P35367). Put plainly: biochemical.
Experiment [20] addresses HIST 166–172 peptide (histamine 1 receptor) (Homo sapiens, UniProt P35367). Put plainly: biochemical.
The target of experiment [21] is HIST 177–183 peptide (histamine 1 receptor) (Homo sapiens, UniProt P35367). Put plainly: biochemical.
Experiment [22] concerns the target Met-enkephalin (Homo sapiens). Put plainly: UV spectroscopy. As to conditions: modification not given.

Structures can show the parent of a compound that is named as a salt. Where two headings read alike, the source gives them in different places.

Sequence of intact, purified human mu opioid receptor (muOPR) (P35372 whole entry): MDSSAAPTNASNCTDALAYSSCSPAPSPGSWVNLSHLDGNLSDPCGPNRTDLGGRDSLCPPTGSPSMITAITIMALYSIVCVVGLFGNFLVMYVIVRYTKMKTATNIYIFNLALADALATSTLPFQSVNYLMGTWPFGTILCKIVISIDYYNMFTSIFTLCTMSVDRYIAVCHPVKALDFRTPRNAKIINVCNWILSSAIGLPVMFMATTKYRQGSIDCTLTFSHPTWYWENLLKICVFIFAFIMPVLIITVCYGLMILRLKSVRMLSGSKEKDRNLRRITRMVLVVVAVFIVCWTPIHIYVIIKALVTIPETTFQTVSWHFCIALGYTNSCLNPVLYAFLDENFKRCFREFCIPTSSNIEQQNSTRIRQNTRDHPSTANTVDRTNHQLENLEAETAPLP

As for `NCCc1c[nH]c2ccc(O)cc12` [5HT, 5-hydroxytryptamine], the dissociation constant Kd in experiment [1] is 100 µM; in experiment [2] it was 100 µM; in [3], 350 µM; in experiment [4], 100 µM; in experiment [5] it was 90 µM.

Consider `CC(=O)OCC[N+](C)(C)C` [ACh, acetylcholine], for which, in [6] (UV spectroscopy), the “binding to the muOPR peptides (in words)” value was “no measurable binding”. The Kd in experiment [7] was above 1000 µM; in experiment [7] (Kd @ 210 nm (μM), 210 nm), above 1000 µM; in [1] it was above 1000 µM; in [2] it was above 1000 µM; in experiment [3], above 1000 µM; in experiment [4] it was above 1000 µM. This molecule also registered an equilibrium dissociation constant (Kd) in experiment [5] above 1000 µM. In experiment [7], the “binding to intact muOPR (in words)” value was “No significant binding”.

With `O=C1O[C@H]([C@@H](O)CO)C(O)=C1O` [ASC, ascorbic acid], in [6] (UV spectroscopy), the “binding to the muOPR peptides (in words)” value was “did not bind”. Also, the “binding to intact muOPR (in words)” value in [7] is “No significant binding”.

On to `NCCc1ccc(O)c(O)c1` [DOP, dopamine], for which the “binding to the muOPR peptides (in words)” value in experiment [6] is on record as “only displayed the low affinity binding”.

Regarding `O=C(O)CN(CCN(CC(=O)O)CC(=O)O)CC(=O)O` [EDTA, ethylenediaminetetraacetic acid], the Kd in experiment [8] and in experiment [9] was above 1000 µM each time.

With `OC[C@H]1OC(O)[C@H](O)[C@@H](O)[C@@H]1O` (some centres unmarked) [GLUC, glucose], the Kd in experiment [1], in experiment [2], in experiment [3], in experiment [4], in experiment [5] and in experiment [10] was above 1000 µM each time. The Kd in experiment [11], in experiment [12], in experiment [13], in experiment [14], in experiment [15] and in experiment [16] was above 1000 µM each time. Also, the dissociation constant Kd in [17], in experiment [18], in [19], in experiment [20] and in [21] was above 1000 µM throughout.

Take `NCCc1c[nH]cn1` [Hist, histamine]: in [6], the “binding to the muOPR peptides (in words)” value was “no measurable binding”.

Consider `CN1CC[C@]23c4c5ccc(O)c4O[C@H]2[C@@H](O)C=C[C@H]3[C@H]1C5` [Morph, morphine sulfate], for which the Kd in experiment [14] is 20 µM; in experiment [15], 10 µM.

`C=CCN1CC[C@]23c4c5ccc(O)c4O[C@H]2C(=O)CC[C@@]3(O)[C@H]1C5` [Nalox, naloxone]: the dissociation constant Kd in experiment [10] was found to be 5 µM; in experiment [11], 6 µM; in [12] it was 3 µM; in experiment [13], 40 µM; in [14] it was 5 µM; in [15], 20 µM. Further, the Kd amounted to 20 µM in experiment [8] and 200 µM in experiment [9].

As to `Cc1cc2nc3c(=O)[nH]c(=O)nc-3n(C[C@H](O)[C@H](O)[C@H](O)CO)c2cc1C` [RIBO, riboflavin], the Kd in [1] was 50 µM; in experiment [2] it was above 1000 µM; in experiment [3], above 1000 µM; in experiment [4], 100 µM; in [5] it was above 1000 µM; in experiment [10] it was 400 µM. Also, the Kd in [11] was 600 µM; in [13], 500 µM; in experiment [14], 600 µM; in experiment [15], 300 µM; in experiment [16] it was above 1000 µM; in [17], 400 µM. The dissociation constant Kd in [18] turned out to be 500 µM; in [19], 450 µM; in [8], 500 µM.

For NLALADALATST, in experiment [22], the dissociation constant (Kd) was found to be 80 µM.

With TLPFQSVNYL, the equilibrium dissociation constant (Kd) in experiment [22] was found to be 90 µM.

With KYRQGSIDCTLTFSHP, the Kd in experiment [22] was found to be 1 µM.

The record behind these values is paper PMC5796218 (International Journal of Molecular Sciences, 2018).
